This assay concerns the target T1, human GOAT (Homo sapiens, UniProt Q96T53).
T1 construct: His; made in house; host or cells: Sf9 insect cells (baculovirus, pAN51 vector); microsomal membrane preparation
T1 sequence (Q96T53 1-435): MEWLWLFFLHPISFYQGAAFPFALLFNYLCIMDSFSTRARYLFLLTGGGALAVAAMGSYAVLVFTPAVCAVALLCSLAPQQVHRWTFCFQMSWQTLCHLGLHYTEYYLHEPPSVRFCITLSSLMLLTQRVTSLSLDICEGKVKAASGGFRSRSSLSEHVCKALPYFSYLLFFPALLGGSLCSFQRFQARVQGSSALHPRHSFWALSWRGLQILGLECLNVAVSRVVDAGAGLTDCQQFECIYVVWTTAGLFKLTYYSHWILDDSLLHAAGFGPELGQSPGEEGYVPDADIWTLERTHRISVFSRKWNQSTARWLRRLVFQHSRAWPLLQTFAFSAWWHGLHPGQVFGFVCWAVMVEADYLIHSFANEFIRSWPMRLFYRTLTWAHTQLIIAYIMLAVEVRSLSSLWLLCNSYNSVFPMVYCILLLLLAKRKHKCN
Kind of assay: In vitro cell free human GOAT enzymatic assay. In kind it is biochemical. The following applies: GOAT-His/sf9 membrane preparation. As to the method: Human GOAT gene (Accession number: NM_001100916) is subcloned to pAN51 baculoviral expression vector. Baculovirus stock is prepared following the Bac-to-Bac Protocol provided by the vendor, Invitrogen, California, USA. Five mililiters of human GOAT baculoviral stock are added to 500 mL Sf9 cells in HyQ SFX-Insect™ media (HyClone catalog number SH30278.02) at the density of 1 × 10^6 cells per milliliter in a 2 L Erlenmeyer flask. The flask with human GOAT gene infected Sf9 cells is put on a plate shaker at 120 rpm at 28 °C for 48 hours. After 48 hours incubation, cells are centrifuged at 1,000xg for 10 min at 4 °C. The cell pellets are collected and stored at -80 °C in a freezer until ready for further processing.
One gram cell pellets are suspended in 9 mL chilled homogenization buffer (50 mM Tris-HCl, 250 mM sucrose, adjusted to pH 7.5 and sterile filtered through 0.2 µm Millipore filter). The cell suspension is transferred to a Dounce glass homogenizer. Cell pellets are homogenized with 40 strokes on ice. The homogenate is centrifuged at 3,000 rpm in a Beckman swing bucket rotor at 4 °C for 10 min to remove unbroken cells. The supernatant is collected and centrifuged at 40,000 xg for 1 hour at 4 °C. The resulting membrane pellet is suspended in the homogenization buffer using a Dounce glass homogenizer and stored at -20 °C in the freezer for the assay. For long term storage of the human GOAT enzyme membrane preparation, the suspended membrane is stored in a -80 °C freezer.
Prepare test compounds in DMSO to make up a 0.2 mM stock solution. Serially dilute the stock solution in DMSO to obtain a ten-point dilution curve with final compound concentrations ranging from 10 µM to 0.5 nM in a 96-well round-bottom plate. Prepare enzyme and substrate solutions in assay buffer (0.02% TWEEN™-20 in 50 mM Tris, pH 7.5/250 mM sucrose/1 mg/mL BSA/10 mM EDTA). Add diluted compound (1 µL) to each well of row A to N of a corresponding low protein binding 384 well plate. Add human GOAT substrate mix (10 µL), consisting of human desacyl-ghrelin-biotin (CPC Scientific Inc., 6.0 µM final), octanoyl-coenzyme A (CoA) (Sigma, 60 µM final) and an AG specific antibody (WO 2006/091381)(1.0 µg/mL final), to the compounds. Add GOAT-His/sf9 enzyme preparation, that has been prepared in assay buffer (9 µL), to each well of the plate containing substrate and test compounds resulting in a final concentration of 0.01 µg/mL to initiate the reaction. Incubate the mixture for 1 hour at RT on a gently rotating oscillator. Add 4M guanidine hydrochloride (20 µL) to all wells, mix, and incubate for 3 hours to stop the reaction.
Prepare ELISA plates (STREPTAVIDIN SPECTRAPLATE™ 384, Perkin Elmer) by blocking with 2% Heat-Inactivated FBS in PBS (40 µL) (Invitrogen) blocking buffer for 3 hours. Aspirate the blocking buffer from ELISA plate and add blocking buffer (23 µL) to columns 1-24, rows A-N. Reserve rows O and P for the acylghrelin standard curve. Add the reaction mix (2 µL) to the ELISA plates. Prepare a 10 point standard curve (biotin-labeled octanoyl-ghrelin) by serial 2X dilution in blocking buffer containing 0.2M Guanidine hydrochloride starting at 2.5 pM. Incubate the reaction mixture or biotin-labeled AG standard in the ELISA plate overnight at 4 °C. The following day, wash the plate 3× with wash buffer (0.1% TWEEN™-20/PBS, 100 µL per well in each wash cycle). […] Read plates at 450 nm using an ENVISION® Multilabel plate reader. […]

One may read the IC20 as the concentration needed for an effect of 20%. Read a high IC20 as weaker potency. With `COC(=O)N[C@@H](C)C(=O)N1CCC(CCc2c(C)nc(C(F)(F)F)nc2N)CC1` [Example 20, Methyl N-[(1S)-2-[4-[2-[4-amino-6-methyl-2-(trifluoromethyl)pyrimidin-5-yl]ethyl]-1-pipaidyl]-1-methyl-2-oxo-ethyl]carbamate], the IC20 was determined as 615 nM.

Take `Cc1nc(C(F)(F)F)nc(N)c1CCC1CCN(C(=O)[C@H](C)NC(=O)CO)CC1` [Example 18, N-[(1S)-2-[4-[2-[4-Amino-6-methyl-2-(trifluoromethyl)pyrimidin-5-yl]ethyl]-1-piperidyl]-1-methyl-2-oxo-ethyl]-2-hydroxy-acetamide]: the 20% effect level (IC20) was put at 276 nM.

`Cc1nc(C(F)(F)F)nc(N)c1CCC1CCN(C(=O)[C@H](C)NC(=O)c2nccnc2Cl)CC1` [Example 15, N-[(1S)-2-[4-[2-[4-Amino-6-methyl-2-(trifluoromethyl)pyrimidin-5-yl]ethyl]-1-piperidyl]-1-methyl-2-oxo-ethyl]-3-chloro-pyrazine-2-carboxamide] showed a 20% effect concentration (IC20) of 55.7 nM.

`COc1ccccc1C(=O)N[C@@H](C)C(=O)N1CCC(CCc2c(C)nc(C(F)(F)F)nc2N)CC1` [Example 17, N-[(1S)-2-[4-[2-[4-Amino-6-methyl-2-(trifluoromethyl)pyrimidin-5-yl]ethyl]-1-piperidyl]-1-methyl-2-oxo-ethyl]-2-methoxy-benzamide] yielded an IC20 of 420 nM. Against the preceding compound, the IC20 is about 7.5-fold higher.
